Reference: ChEMBL document CHEMBL4420076, “Amylin and calcitonin receptor agonist” (2017)
Numbered stars: 1 amine (or outer) side, 2 acyl side, 3 side chain; on linkers, the order of the positions; unused ones are H or OH. Peptide text beside a SMILES is read from it. * marks the point of attachment. C20 diacid = O=C(O)CCCCCCCCCCCCCCCCCCC(=O)*; C18 diacid = O=C(O)CCCCCCCCCCCCCCCCC(=O)*; γGlu = O=C(O)[C@H](CCC(=O)[*:2])N[*:1]

Assays:
[1] = Stability in pH 7.5 buffer assessed as lag time for fibril formation at 1 uM by Thioflavin T based fluorescence assay; format: physicochemical; details: pH 7.5, 1 µM
[2] = Solubility in 100 mM glycylglycine buffer at pH 4.0 incubated for 18 hrs by UPLC analysis; format: physicochemical
[3] = Solubility in 100 mM bistrispropane buffer at pH 7.0 incubated for 18 hrs by UPLC analysis; format: physicochemical
[4] = Solubility in 100 mM bistrispropane buffer at pH 7.5 incubated for 18 hrs by UPLC analysis; format: physicochemical
[5] = Solubility in 100 mM bistrispropane buffer at pH 6.0 incubated for 18 hrs by UPLC analysis; format: physicochemical
[6] = Solubility in 100 mM bistrispropane buffer at pH 6.5 incubated for 18 hrs by UPLC analysis; format: physicochemical
[7] = Solubility in 100 mM glycylglycine buffer at pH 3.0 incubated for 18 hrs by UPLC analysis; format: physicochemical
[8] = Solubility in 100 mM bistrispropane buffer at pH 8.0 incubated for 18 hrs by UPLC analysis; format: physicochemical
[9] = Solubility in 100 mM glycylglycine buffer at pH 5.0 incubated for 18 hrs by UPLC analysis; format: physicochemical
[10] = Stability in pH 7.5 buffer assessed as compound recovery at 1 uM by Thioflavin T based fluorescence assay; format: physicochemical; details: read-out: Drug recovery
[11] = target: T1, Amylin receptor AMY3; CALCR/RAMP3 (Homo sapiens, UniProt O60896+P30988); experiment: Agonist activity at human amylin receptor expressed in BHK570 cells co-expressing RAMP3 assessed as increase in intracellular cAMP concentration incubated for 3 hrs in absence of albumin by CRE luciferase reporter gene assay; format: functional, cell-based
T1 sequence (P30988 whole entry): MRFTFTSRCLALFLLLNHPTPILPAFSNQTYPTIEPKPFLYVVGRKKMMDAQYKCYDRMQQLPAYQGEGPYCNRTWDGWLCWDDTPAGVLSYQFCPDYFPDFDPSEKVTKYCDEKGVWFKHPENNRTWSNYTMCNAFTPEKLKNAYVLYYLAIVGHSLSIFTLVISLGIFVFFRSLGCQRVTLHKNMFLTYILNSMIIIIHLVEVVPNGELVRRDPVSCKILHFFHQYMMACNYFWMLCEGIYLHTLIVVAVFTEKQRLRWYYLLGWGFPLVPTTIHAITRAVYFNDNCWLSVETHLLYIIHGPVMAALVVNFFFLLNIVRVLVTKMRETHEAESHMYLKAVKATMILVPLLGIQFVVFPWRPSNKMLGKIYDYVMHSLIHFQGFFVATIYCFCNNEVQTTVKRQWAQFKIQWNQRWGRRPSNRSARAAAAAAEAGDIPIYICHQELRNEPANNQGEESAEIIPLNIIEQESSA
T1 sequence (O60896 whole entry): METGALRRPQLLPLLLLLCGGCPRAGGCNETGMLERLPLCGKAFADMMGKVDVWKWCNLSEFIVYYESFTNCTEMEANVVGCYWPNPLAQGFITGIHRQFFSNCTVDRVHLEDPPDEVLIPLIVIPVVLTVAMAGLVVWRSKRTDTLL

[12] = target: T1, Amylin receptor AMY3; CALCR/RAMP3; experiment: Displacement of [125I]-labeled rat amylin from human amylin receptor expressed in BHK tkts13 whole cells co-expressing RAMP3 incubated for 60 mins by scintillation proximity assay; format: cell-based
Calcitonin receptor [13] = target: T2, Calcitonin receptor (Homo sapiens, UniProt P30988); experiment: Agonist activity at human calcitonin receptor expressed in BHK570 cells assessed as increase in intracellular cAMP concentration incubated for 3 hrs in presence of 10% FBS by CRE luciferase reporter gene assay; format: functional, cell-based
T2 sequence (P30988 whole entry): T1 sequence (P30988 whole entry)

Calcitonin receptor [14] = target: T2, Calcitonin receptor; experiment: Agonist activity at human calcitonin receptor expressed in BHK570 cells assessed as increase in intracellular cAMP concentration incubated for 3 hrs in absence of albumin by CRE luciferase reporter gene assay; format: functional, cell-based

Time [1]	solubility at 18 h [2]	solubility at 18 h [3]	solubility at 18 h [4]	solubility at 18 h [5]	solubility at 18 h [6]	solubility at 18 h [7]	solubility at 18 h [8]	solubility at 18 h [9]	remaining at 1 µM [10]	EC50 [11]	IC50 [12]	EC50 (Calcitonin receptor [13])	EC50 (Calcitonin receptor [14])	SMILES
> 45 h									100%					CC(C)C[C@H](NC(=O)[C@H](C)NC(=O)[C@H](C)NC(=O)[C@@H](NC(=O)[C@H](CO)NC(=O)[C@H](CC(C)C)NC(=O)[C@H](CCC(=O)O)NC(=O)[C@H](CO)NC(=O)[C@H](C)NC(=O)CC[C@H](NC(=O)CCCCCCCCCCCCCCCCC(=O)O)C(=O)O)[C@@H](C)O)C(=O)NCC(=O)N[C@@H](CCCNC(=N)N)C(=O)N[C@@H](CC(C)C)C(=O)N[C@@H](CO)C(=O)N[C@@H](C)C(=O)N[C@@H](CCC(=O)O)C(=O)N[C@@H](CC(C)C)C(=O)N[C@@H](Cc1c[nH]cn1)C(=O)N[C@@H](CCC(=O)O)C(=O)N[C@@H](CC(C)C)C(=O)N[C@@H](C)C(=O)N[C@H](C(=O)N[C@@H](Cc1ccc(O)cc1)C(=O)N1CCC[C@H]1C(=O)N[C@@H](CCCNC(=N)N)C(=O)N[C@H](C(=O)N[C@@H](CCC(=O)O)C(=O)N[C@H](C(=O)NCC(=O)N[C@@H](CO)C(=O)NCC(=O)N[C@@H](CO)C(=O)N1CCC[C@H]1C(N)=O)[C@@H](C)O)[C@@H](C)O)[C@@H](C)O ({C18 diacid-γGlu}-ASELSTAALGRLSAELHELATYPRTETGSGSP-NH2)
> 45 h	≥ 200 µM	≥ 200 µM	≥ 200 µM	≥ 200 µM	≥ 200 µM	≥ 200 µM	≥ 200 µM	≥ 200 µM	100%	0.067 nM	1.89 nM	0.102 nM	0.04 nM	CC(C)C[C@H](NC(=O)[C@H](C)NC(=O)[C@H](C)NC(=O)[C@@H](NC(=O)[C@H](CO)NC(=O)[C@H](CC(C)C)NC(=O)[C@H](CCC(=O)O)NC(=O)[C@H](CO)NC(=O)[C@H](C)NC(=O)CC[C@H](NC(=O)CCCCCCCCCCCCCCCCCCC(=O)O)C(=O)O)[C@@H](C)O)C(=O)NCC(=O)N[C@@H](CCCNC(=N)N)C(=O)N[C@@H](CC(C)C)C(=O)N[C@@H](CO)C(=O)N[C@@H](C)C(=O)N[C@@H](CCC(=O)O)C(=O)N[C@@H](CC(C)C)C(=O)N[C@@H](Cc1cnc[nH]1)C(=O)N[C@@H](CCC(=O)O)C(=O)N[C@@H](CC(C)C)C(=O)N[C@@H](C)C(=O)N[C@H](C(=O)N[C@@H](CC(C)C)C(=O)N1CCC[C@H]1C(=O)N[C@@H](CCCNC(=N)N)C(=O)N[C@H](C(=O)N[C@@H](CCC(=O)O)C(=O)N[C@H](C(=O)NCC(=O)N[C@@H](CO)C(=O)NCC(=O)N[C@@H](CO)C(=O)N[C@@H](C)C(N)=O)[C@@H](C)O)[C@@H](C)O)[C@@H](C)O ({C20 diacid-γGlu}-ASELSTAALGRLSAELHELATLPRTETGSGSA-NH2)
> 45 h	≥ 200 µM	≥ 200 µM	≥ 200 µM	≥ 200 µM	≥ 200 µM	≥ 200 µM	≥ 200 µM	≥ 200 µM	100%		3.05 nM		0.031 nM	CC(C)C[C@H](NC(=O)[C@H](CO)NC(=O)CNC(=O)[C@H](CO)NC(=O)CNC(=O)[C@@H](NC(=O)[C@H](CCC(=O)O)NC(=O)[C@@H](NC(=O)[C@H](CCCNC(=N)N)NC(=O)[C@@H]1CCCN1C(=O)[C@H](CC(C)C)NC(=O)[C@@H](NC(=O)[C@H](C)NC(=O)[C@H](CC(C)C)NC(=O)[C@H](CCC(=O)O)NC(=O)[C@H](Cc1cnc[nH]1)NC(=O)[C@H](CC(C)C)NC(=O)[C@H](CCC(=O)O)NC(=O)[C@H](C)NC(=O)[C@H](CO)NC(=O)[C@H](CC(C)C)NC(=O)[C@H](CCCNC(=N)N)NC(=O)CNC(=O)[C@H](CC(C)C)NC(=O)[C@H](C)NC(=O)[C@H](C)NC(=O)[C@@H](NC(=O)[C@H](CO)NC(=O)[C@H](CC(C)C)NC(=O)[C@H](CCC(=O)O)NC(=O)[C@H](CO)NC(=O)[C@H](C)NC(=O)CC[C@H](NC(=O)CCCCCCCCCCCCCCCCCCC(=O)O)C(=O)O)[C@@H](C)O)[C@@H](C)O)[C@@H](C)O)[C@@H](C)O)C(N)=O ({C20 diacid-γGlu}-ASELSTAALGRLSAELHELATLPRTETGSGSL-NH2)
> 45 h	≥ 200 µM	≥ 200 µM	≥ 200 µM	≥ 200 µM	≥ 200 µM	≥ 200 µM	≥ 200 µM	≥ 200 µM	100%	0.063 nM	4.07 nM	0.154 nM	0.038 nM	CC(C)C[C@H](NC(=O)[C@H](C)NC(=O)[C@H](C)NC(=O)[C@@H](NC(=O)[C@H](CO)NC(=O)[C@H](CC(C)C)NC(=O)[C@H](CCC(=O)O)NC(=O)[C@H](CO)NC(=O)[C@H](C)NC(=O)CC[C@H](NC(=O)CCCCCCCCCCCCCCCCCCC(=O)O)C(=O)O)[C@@H](C)O)C(=O)NCC(=O)N[C@@H](CCCNC(=N)N)C(=O)N[C@@H](CC(C)C)C(=O)N[C@@H](CO)C(=O)N[C@@H](C)C(=O)N[C@@H](CCC(=O)O)C(=O)N[C@@H](CC(C)C)C(=O)N[C@@H](Cc1cnc[nH]1)C(=O)N[C@@H](CCC(=O)O)C(=O)N[C@@H](CC(C)C)C(=O)N[C@@H](C)C(=O)N[C@H](C(=O)N[C@@H](CC(C)C)C(=O)N1CCC[C@H]1C(=O)N[C@@H](CCCNC(=N)N)C(=O)N[C@H](C(=O)N[C@@H](CCC(=O)O)C(=O)N[C@H](C(=O)NCC(=O)N[C@@H](CO)C(=O)NCC(=O)N[C@@H](CO)C(=O)N[C@@H](CO)C(N)=O)[C@@H](C)O)[C@@H](C)O)[C@@H](C)O ({C20 diacid-γGlu}-ASELSTAALGRLSAELHELATLPRTETGSGSS-NH2)

SMILES	Time [1]	solubility at 18 h [2]	solubility at 18 h [3]	solubility at 18 h [4]	solubility at 18 h [5]	solubility at 18 h [6]	solubility at 18 h [7]	solubility at 18 h [8]	solubility at 18 h [9]	remaining at 1 µM [10]	EC50 [11]	IC50 [12]	EC50 (Calcitonin receptor [13])	EC50 (Calcitonin receptor [14])
CC(C)C[C@H](NC(=O)[C@H](C)NC(=O)[C@H](C)NC(=O)[C@@H](NC(=O)[C@H](CO)NC(=O)[C@H](CC(C)C)NC(=O)[C@H](CCC(=O)O)NC(=O)[C@H](CO)NC(=O)[C@H](C)N)[C@@H](C)O)C(=O)NCC(=O)N[C@@H](CCCNC(=N)N)C(=O)N[C@@H](CC(C)C)C(=O)N[C@@H](CO)C(=O)N[C@@H](C)C(=O)N[C@@H](CCC(=O)O)C(=O)N[C@@H](CC(C)C)C(=O)N[C@@H](Cc1cnc[nH]1)C(=O)N[C@@H](CCC(=O)O)C(=O)N[C@@H](CC(C)C)C(=O)N[C@@H](C)C(=O)N[C@H](C(=O)N[C@@H](CC(C)C)C(=O)N1CCC[C@H]1C(=O)N[C@@H](CCCNC(=N)N)C(=O)N[C@H](C(=O)N[C@@H](CCCCNC(=O)CC[C@H](NC(=O)CCCCCCCCCCCCCCCCCCC(=O)O)C(=O)O)C(=O)N[C@H](C(=O)NCC(=O)N[C@@H](CO)C(=O)NCC(=O)N[C@@H](CO)C(=O)N1CCC[C@H]1C(N)=O)[C@@H](C)O)[C@@H](C)O)[C@@H](C)O	> 45 h	≥ 200 µM	≥ 200 µM	≥ 200 µM	≥ 200 µM	≥ 200 µM	≥ 200 µM	≥ 200 µM	≥ 200 µM	94%				
